# Several values for one entry are separate records, joined by “and”; a condition that tells them apart may be missing. Equal entries are not always repeated. Entries after “also recorded” stand apart in the source; their conditions may differ. Where two headings read alike, the source gives them in different places.
# What was measured:
# HepG2 cells = assay: Cellular antioxidant activity (CAA) assay: inhibition of peroxyl radical-induced DCFH oxidation; type: cell-based, human; conditions: for CAA value: Example 1, pure compounds, EC50 converted to quercetin equivalents
# Description: Cells (e.g., human hepatocellular carcinoma cells; HepG2) are seeded at a density of e.g., 6×10^4/well on a 96-well microplate in 100 μL growth medium/well. It is preferred that only the inside wells of e.g., a 96-well microplate are used for the assay, since the outer wells have increased variation compared to that of the inner wells. Twenty-four hours after seeding the growth medium is removed and the wells are washed with PBS. Triplicate wells are treated for 1 h with 100 μL of a test compound (e.g., pure phytochemical compounds or fruit extracts) plus 25 μM DCFH-DA dissolved in treatment medium.
# 600 μM ABAP is then applied to the cells in 100 μL HBSS and the 96-well microplate is placed into a plate reader e.g., Fluoroskan Ascent FL plate-reader (ThermoLabsystems, Franklin, Mass.) at 37° C. Emission at 538 nm is measured with excitation at 485 nm, for example every 5 min for 1 h. Each plate should include triplicate control and blank wells: control wells contain cells treated with DCFH-DA and oxidant; blank wells contain cells treated with dye and HBSS without oxidant.
# A test compound is assayed in multiple wells of e.g., a 96-well cell culture plate. Some wells are washed with 100 μL of phosphate-buffered saline (PBS) prior to the addition of ABAP, while other wells were not washed prior to the addition of ABAP. It was noted that the measured antioxidant activity of some fruit extracts (e.g., blueberries) was different when a PBS wash was used compared to when there was no PBS wash (see Table 2; FIGS. 3 and 4). This is likely due to non-specific binding of certain antioxidant compounds to the outer membrane, or a reduced uptake of the compound, thus the ratio of antioxidant activity values obtained with a PBS wash compared to a non-PBS wash indicates the bioavailability of the test compound. In order to accurately measure the intracellular antioxidant activity of a test compound, a PBS wash prior to the addition of a peroxyl initiator (e.g, ABAP) is necessary. The values obtained for cells assayed using a PBS wash should be compared to values obtained for the same cells assayed without a PBS wash. One of skill in the art can plan and perform experiments on a test compound in the presence and absence of a PBS wash, in order to accurately assess the intracellular antioxidant capacity of the test compound.
# After blank subtraction from the fluorescence readings, the area under the curve of fluorescence versus time is integrated to calculate the cellular antioxidant activity (CAA) value at each concentration of pure phytochemical compound or fruit extract as follows:
# where ∫SA is the integrated area under the sample fluorescence versus time curve and ∫CA is the integrated area from the control curve. The median effective dose (EC50) was determined for the pure phytochemical compounds and fruit extracts from the median effect plot of log (fa/fu) vs. log (dose), where fa is the fraction affected and fu is the fraction unaffected by the treatment. To quantify intra-experimental variation, the EC50 values are stated as mean±SD for triplicate sets of data obtained from the same experiment. Inter-experimental variation is obtained for some representative pure phytochemical compounds and fruit extracts by averaging the fluorescence values from triplicate wells in each trial to obtain one EC50 value per experiment and calculating the mean±SD for at least four trials. In each experiment, a standard is used, for example quecetin, thus permitting the cellular antioxidant activities for a test compounds to be expressed as μmol quercetin equivalents (QE)/100 μmol compound. Fruit extracts are expressed as μmol QE/100 g fruit. In order to compare the antioxidant quality of different fruits, cellular antioxidant activity (CAA) is also calculated as μmol QE/100 μmol total phenolics.
# Human hepatocellular carcinoma HepG2 cells were seeded at a density of 6×10^4/well on a 96-well microplate in 100 μL growth medium/well. […]
# [1] = Oxygen radical absorbance capacity (ORAC) assay; conditions: Example 3, flavonoids, mean ± SD, n ≧ 3
# Description: The peroxyl radical scavenging efficacy of selected fruits was measured using the ORAC assay (Prior, R. L., et al (2003) J. Agric. Food Chem. 51:3273-3279). Briefly, 20 μL of blank, Trolox standard, or fruit extracts in 75 mM potassium phosphate buffer, pH 7.4 (working buffer), was added to triplicate wells in a black, clear-bottom, 96-well microplate. The triplicate samples were distributed throughout the microplate and were not placed side-by-side, to avoid any effects on readings due to location. In addition, no outside wells were used, as use of those wells results in greater variation. A volume of 200 μL of 0.96 μM fluorescein in working buffer was added to each well and incubated at 37° C. for 20 min, with intermittent shaking, before the addition of 20 μL of freshly prepared 119 mM ABAP in working buffer using a 12-channel pipetter. The microplate was immediately inserted into a Fluoroskan Ascent FL plate reader (ThermoLabsystems) at 37° C. The decay of fluorescence at 538 nm was measured with excitation at 485 nm every 4.5 min for 2.5 h. The areas under the fluorescence versus time curve for the samples minus the area under the curve for the blank were calculated and compared to a standard curve of the areas under the curve for 6.25, 12.5, 25, and 50 μM Trolox standards minus the area under the curve for blank. ORAC values were expressed as mean micromoles of Trolox equivalents (TE) per 100 g of fruit±SD for triplicate data from one experiment.
# ORAC measurements were performed as described herein in Example 2.
# [2] = Example 3, Table 7, no PBS wash
# [3] = Homo sapiens, HepG2, Example 3, Table 7, PBS wash, flavonoids, mean ± SD, n=3, read-out: EC50
# [4] = Homo sapiens, HepG2, Example 3, Table 7, no PBS wash, flavonoids, mean ± SD, n=3, read-out: EC50
# [5] = Example 1, Table 1, PBS wash, pure phytochemical compounds, mean ± SD, n=3, read-out: EC50 for inhibition of peroxyl radical-induced DCFH oxidation
# [6] = Homo sapiens, HepG2, Example 1, Table 1, no PBS wash, pure phytochemical compounds, mean ± SD, n=3, read-out: EC50 for inhibition of peroxyl radical-induced DCFH oxidation
# [7] = CAA assay, either protocol or protocol not specified
# [8] = Example 3, Table 7, PBS wash, flavonoids, mean ± SD, n=3
# [9] = Example 3, Table 7, no PBS wash, flavonoids, mean ± SD, n=3
# [10] = Example 3, Table 7, PBS wash, flavonoids, mean ± SD, n=3, read-out: EC50
# [11] = Example 3, Table 7, no PBS wash, flavonoids, mean ± SD, n=3, read-out: EC50
# [12] = Homo sapiens, HepG2, Example 1, Table 1, PBS wash, pure phytochemical compounds, mean ± SD, n=3, read-out: EC50 for inhibition of peroxyl radical-induced DCFH oxidation
Molecule,"CAA (HepG2 cells; Example 3, Table 7, PBS wash)",CAA (HepG2 cells; [2]),EC50 (HepG2 cells; [3]),EC50 (HepG2 cells; [4]),ORAC [1],EC50 (HepG2 cells; [6]),"cellular antioxidant activity, result in words (HepG2 cells; [7])",CAA value (HepG2 cells; PBS wash),CAA value (HepG2 cells; no PBS wash),EC50 (HepG2 cells; [12]),also measured
"O=C(O[C@@H]1Cc2c(O)cc(O)cc2O[C@@H]1c1ccc(O)c(O)c1)c1cc(O)c(O)c(O)c1 [ECG, (−)-epicatechin gallate]",31.9 ± 2.2 μmol of QE/100 μmol,62.1 ± 1.9 μmol of QE/100 μmol,25.6 ± 1.8 µM,14.2 ± 0.4 µM,7.71 ± 1.57 cde μmol of TE/μmol,,,,,,
"O=c1c(O)c(-c2ccc(O)c(O)c2)oc2cc(O)cc(O)c12 [Quercetin, quercetin]",105.7 ± 3.7 μmol of QE/100 μmol,99.1 ± 4.8 μmol of QE/100 μmol,7.71 ± 0.26 µM,8.93 ± 0.44 µM,8.04 ± 2.37 cde μmol of TE/μmol,5.92 ± 0.07 µM,,,,,"EC50 (HepG2 cells; [5]): 5.09 ± 0.19 µM; EC50 (HepG2 cells; Homo sapiens, HepG2, Table 2, no PBS wash, mean ± SD over the trials, read-out: Interexperimental EC50): 5.89 ± 0.36 µM; EC50 (HepG2 cells; Homo sapiens, HepG2, Table 2, no PBS wash, one line per trial (trials 1-5), n=3, read-out: Intraexperimental EC50): 6.07 ± 0.25 µM; EC50 (HepG2 cells; Homo sapiens, HepG2, Table 3, PBS wash, mean ± SD over the trials, read-out: Interexperimental EC50): 5.12 ± 0.58 µM; EC50 (HepG2 cells; Homo sapiens, HepG2, Table 3, PBS wash, one line per trial (trials 1-5), n=3, read-out: Intraexperimental EC50): 4.48 ± 0.18 µM"
O=c1c(-c2ccc(O)cc2)coc2cc(O)cc(O)c12 [genistein],,,,,13.4±2.8 μmol of TE/μmol and 13.4 ± 2.8 a μmol of TE/μmol,,no cellular antioxidant activity; also recorded: no CAA,,,,"cellular antioxidant activity, result in words (HepG2 cells; CAA assay, either protocol or protocol not specified, listed as Genistein): no activity; EC50 (HepG2 cells; [8]): no activity; EC50 (HepG2 cells; [9]): no activity"
O=c1c(O)c(-c2ccccc2)oc2cc(O)cc(O)c12 [galangin],107.8 ± 6.4 μmol of QE/100 μmol,66.3 ± 1.1 μmol of QE/100 μmol,7.56 ± 0.46 µM,13.3 ± 0.2 µM,2.63 ± 1.31 gh μmol of TE/μmol,,,,,,ORAC ([1]; listed as Galangin): 2.63±1.31 μmol of TE/μmol
(−)-epigallocatechin gallate [EGCG],63.8 ± 4.4 μmol of QE/100 μmol,72.1 ± 3.8 μmol of QE/100 μmol,,,4.55±0.40 μmol of TE/μmol and 4.55 ± 0.40 fgh μmol of TE/μmol,,,32.3 ± 0.9 µmol QE/100 µmol,42.2±3.1 μmol QE/100 μmol,,"EC50 (HepG2 cells; [5]): 15.8 ± 0.4 µM; EC50 (HepG2 cells; Example 1, Table 1, no PBS wash, pure phytochemical compounds, mean ± SD, n=3, read-out: EC50 for inhibition of peroxyl radical-induced DCFH oxidation): 14 ± 1 µM; EC50 (HepG2 cells; [10]): 12.8 ± 0.9 µM; EC50 (HepG2 cells; [11]): 12.3 ± 0.7 µM"
"O=c1c(O[C@@H]2O[C@H](CO)[C@@H](O)[C@H](O)[C@H]2O)c(-c2ccc(O)c(O)c2)oc2cc(O)cc(O)c12 [Q-3-G, quercetin-3-β-D-glucoside]",6.6 ± 0.1 μmol of QE/100 μmol,7.7 ± 0.1 μmol of QE/100 μmol,,,8.11 ± 1.86 cde μmol of TE/μmol,,low amount of activity; also recorded: low or no cellular antioxidant activity,,,,EC50 (HepG2 cells; [10]): 122 ± 1 µM; EC50 (HepG2 cells; [11]): 115 ± 2 µM
O=C1C[C@@H](c2ccc(O)cc2)Oc2cc(O)cc(O)c21 [naringenin],,,,,9.23 ± 2.79 bcd μmol of TE/μmol,,no activity; also recorded: no CAA,,,,"EC50 (HepG2 cells; [8]): no activity; EC50 (HepG2 cells; [9]): no activity; cellular antioxidant activity, result in words (HepG2 cells; no PBS wash protocol): none"
"O=C1c2c(O)cc(O)cc2O[C@H](c2ccc(O)c(O)c2)[C@H]1O [Taxifolin, taxifolin]",,,> 200 µM,> 200 µM,9.74 ± 1.20 bcd μmol of TE/μmol,> 150 µM,low or no cellular antioxidant activity; also recorded: low CAA,,,> 150 µM,"cellular antioxidant activity, result in words (HepG2 cells; PBS wash protocol): low activity at the concentrations tested; cellular antioxidant activity, result in words (HepG2 cells; no PBS wash protocol): activity only at doses much higher than their cytotoxic concentrations; also recorded: low, but unquantifiable, activity; also recorded: low but unquantifiable activity"
"O=c1cc(-c2ccc(O)c(O)c2)oc2cc(O)cc(O)c12 [Luteolin, luteolin]",29.5 ± 2.1 μmol of QE/100 μmol,37.1 ± 0.0 μmol of QE/100 μmol,27.7 ± 2 µM,23.8 µM,8.55 ± 0.85 cde μmol of TE/μmol,26.1 ± 0.26 µM,,22.2 ± 1 µmol QE/100 µmol,22.6±0.2 μmol QE/100 μmol,23.1 ± 1 µM,
"O=c1c(O)c(-c2cc(O)c(O)c(O)c2)oc2cc(O)cc(O)c12 [Myricetin, myricetin]",11.5 ± 0.7 μmol of QE/100 μmol,28.4 ± 0.9 μmol of QE/100 μmol,70.7 ± 4.2 µM,31.1 ± 1 µM,4.55±0.50 μmol of TE/μmol and 4.55 ± 0.50 fgh μmol of TE/μmol,16.1 ± 1.7 µM,,33.1 ± 1 µmol QE/100 µmol,36.8±3.8 μmol QE/100 μmol,15.4 ± 0.5 µM,"EC50 (HepG2 cells; Homo sapiens, HepG2, Example 3, text, no PBS wash, read-out: EC50): 31.1 ± 1 µM"

# Source: patent US20110313672A1, “CELLULAR ANTIOXIDANT ACTIVITY (CAA) ASSAY” (CORNELL UNIVERSITY, priority 2007, published 2011)
